Experimental data from patent US20080009418A1, “Selective Inhibitors” (Alchemia LTD., priority 2004, published 2008).

Experiments:
[1] = target: T1, Human μ-opioid (MOP) (Homo sapiens, UniProt P35372); assay: Radioligand binding, human μ-opioid (MOP) membranes, FlashPlate, [3H]-Naloxone; settings: compound at 10 μM; for A7 radioligand binding inhibition: human μ-opioid (MOP) membranes
T1 construct: purchased Perkin Elmer Biosignal
Procedure, shortened: (§1)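 Cloned human receptor membranes were coated onto FlashPlate wells and incubated with radioligand and compound (added from a 0.5 mM DMSO daughter plate) for 1 hour at room temperature in the dark. Scintillation counting gave percent inhibition, with DMSO defining total and reference ligand defining non-specific binding.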

[2] = target: T2, Human Melanocortin (MC4) (Homo sapiens, UniProt P32245); assay: Radioligand binding, human melanocortin MC4 membranes, FlashPlate, [125I]-NDP-αMSH; settings: compound at 10 μM; for A4 radioligand binding inhibition: human melanocortin MC4 membranes
T2 construct: purchased Perkin Elmer Biosignal
T2 sequence (P32245 whole entry): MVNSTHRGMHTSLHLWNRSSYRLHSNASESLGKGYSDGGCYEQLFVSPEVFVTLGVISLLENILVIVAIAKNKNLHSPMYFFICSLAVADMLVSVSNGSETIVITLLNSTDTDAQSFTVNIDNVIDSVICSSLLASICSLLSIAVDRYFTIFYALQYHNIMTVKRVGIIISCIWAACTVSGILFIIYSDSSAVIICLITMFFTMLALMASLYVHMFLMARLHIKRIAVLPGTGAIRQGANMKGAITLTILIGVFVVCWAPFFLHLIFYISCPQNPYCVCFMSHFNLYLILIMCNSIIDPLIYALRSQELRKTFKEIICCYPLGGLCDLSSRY
Procedure, shortened: as §1

[3] = target: T3, Human neurokinin (NK1) (Homo sapiens, UniProt P25103); assay: Radioligand binding, human neurokinin NK1 membranes, filtration, [125I]-Substance P; settings: compound at 10 μM; for A8 radioligand binding inhibition: human neurokinin NK1 membranes
T3 construct: purchased Perkin Elmer Biosignal
T3 sequence (P25103 whole entry): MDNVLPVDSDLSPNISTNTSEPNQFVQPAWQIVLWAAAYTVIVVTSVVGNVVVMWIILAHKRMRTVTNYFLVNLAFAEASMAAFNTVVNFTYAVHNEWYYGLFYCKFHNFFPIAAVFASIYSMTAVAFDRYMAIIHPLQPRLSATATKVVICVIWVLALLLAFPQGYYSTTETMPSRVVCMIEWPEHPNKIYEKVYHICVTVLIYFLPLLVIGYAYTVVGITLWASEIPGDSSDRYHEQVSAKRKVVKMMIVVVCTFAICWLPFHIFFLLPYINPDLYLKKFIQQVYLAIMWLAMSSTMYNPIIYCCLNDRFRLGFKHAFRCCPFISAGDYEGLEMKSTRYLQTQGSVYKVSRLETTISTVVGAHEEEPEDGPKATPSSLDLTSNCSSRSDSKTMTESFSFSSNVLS
Procedure, shortened: (§2)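 Filtration binding on cloned human receptor membranes (1 Unit/well), [125I]-Substance P for NK1 and [3H]-Diprenorphine for KOP, 1 h at room temperature. Filters PEI-presoaked, washed with cold 50 mM Tris-HCl pH 7.4, counted by scintillation; percent inhibition calculated, reference ligand defining non-specific binding.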

[4] = target: T4, Human Melanocortin (MC3) (Homo sapiens, UniProt P41968); assay: Radioligand binding, human melanocortin MC3 membranes, FlashPlate, [125I]-NDP-αMSH; settings: compound at 10 μM; for A3 radioligand binding inhibition: human melanocortin MC3 membranes
T4 construct: purchased Perkin Elmer Biosignal
T4 sequence (P41968 whole entry): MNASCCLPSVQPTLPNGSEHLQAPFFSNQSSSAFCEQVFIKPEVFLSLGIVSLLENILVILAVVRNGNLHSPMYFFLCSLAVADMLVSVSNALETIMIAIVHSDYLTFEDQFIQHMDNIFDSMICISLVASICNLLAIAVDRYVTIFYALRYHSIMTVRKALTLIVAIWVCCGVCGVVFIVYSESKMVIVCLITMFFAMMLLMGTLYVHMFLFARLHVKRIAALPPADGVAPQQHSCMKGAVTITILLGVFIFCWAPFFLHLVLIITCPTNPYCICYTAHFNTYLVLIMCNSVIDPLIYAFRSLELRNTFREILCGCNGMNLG
Procedure, shortened: as §1

[5] = target: T5, Human opioid (ORL1) (Homo sapiens, UniProt P41146); assay: Radioligand binding, human opioid ORL1 membranes, FlashPlate, [125I]-Nociceptin; settings: compound at 10 μM; for A10 radioligand binding inhibition: human ORL1 membranes
T5 construct: purchased Perkin Elmer Biosignal
T5 sequence (P41146 whole entry): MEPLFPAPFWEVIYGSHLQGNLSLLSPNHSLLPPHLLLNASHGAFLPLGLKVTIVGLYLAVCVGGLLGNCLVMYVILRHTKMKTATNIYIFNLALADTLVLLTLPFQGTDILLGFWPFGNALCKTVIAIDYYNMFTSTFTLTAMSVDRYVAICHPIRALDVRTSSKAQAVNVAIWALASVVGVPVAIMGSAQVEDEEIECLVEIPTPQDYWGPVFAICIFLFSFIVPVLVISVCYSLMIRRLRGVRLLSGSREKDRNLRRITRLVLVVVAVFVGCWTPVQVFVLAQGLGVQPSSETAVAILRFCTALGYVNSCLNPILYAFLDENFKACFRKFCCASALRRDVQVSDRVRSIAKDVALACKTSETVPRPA
Procedure, shortened: as §1

[6] = target: T6, Human melanocortin (MC5) (Homo sapiens, UniProt P33032); assay: Radioligand binding, human melanocortin MC5 membranes, FlashPlate, [125I]-NDP-αMSH; settings: compound at 10 μM; for A5 radioligand binding inhibition: human melanocortin MC5 membranes
T6 construct: purchased Perkin Elmer Biosignal
T6 sequence (P33032 whole entry): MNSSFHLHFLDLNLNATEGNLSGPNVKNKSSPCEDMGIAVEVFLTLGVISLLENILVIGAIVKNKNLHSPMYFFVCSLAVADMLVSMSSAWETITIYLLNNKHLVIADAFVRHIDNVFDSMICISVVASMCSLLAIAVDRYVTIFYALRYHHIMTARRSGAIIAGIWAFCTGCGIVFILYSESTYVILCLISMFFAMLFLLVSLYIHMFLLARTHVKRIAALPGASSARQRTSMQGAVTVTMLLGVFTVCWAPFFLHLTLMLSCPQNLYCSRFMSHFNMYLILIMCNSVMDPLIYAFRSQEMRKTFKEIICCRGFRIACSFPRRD
Procedure, shortened: as §1

[7] = target: T7, Human neuropeptide Y (NPY-Y1) (Homo sapiens, UniProt P25929); assay: Radioligand binding, human neuropeptide Y NPY-Y1 membranes, FlashPlate, [125I]-PYY; settings: compound at 10 μM; for A9 radioligand binding inhibition: human NPY-Y1 membranes
T7 construct: purchased Perkin Elmer Biosignal
T7 sequence (P25929 1-384): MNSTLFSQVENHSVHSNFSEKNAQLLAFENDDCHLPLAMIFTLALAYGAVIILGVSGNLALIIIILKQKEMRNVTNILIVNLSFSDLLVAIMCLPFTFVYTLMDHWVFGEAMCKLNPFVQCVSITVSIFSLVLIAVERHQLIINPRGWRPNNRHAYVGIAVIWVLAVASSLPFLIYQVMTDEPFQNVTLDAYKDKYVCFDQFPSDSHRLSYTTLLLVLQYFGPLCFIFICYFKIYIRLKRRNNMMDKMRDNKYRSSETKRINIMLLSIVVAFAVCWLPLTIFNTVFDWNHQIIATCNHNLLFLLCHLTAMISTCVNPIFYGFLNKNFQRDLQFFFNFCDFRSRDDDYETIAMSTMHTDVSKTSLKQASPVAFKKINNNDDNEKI
Procedure, shortened: as §1

[8] = target: T8, Human melanin-concentrating hormone (MCH1) (Homo sapiens, UniProt Q99705); assay: Radioligand binding, human melanin-concentrating hormone MCH1 membranes, FlashPlate, [125I]-S36057; settings: compound at 10 μM; for A6 radioligand binding inhibition: human MCH1 membranes; for A6: inhibition of radioligand binding, human melanin-concentrating hormone (MCH1): [125I]-S36057
T8 construct: purchased Perkin Elmer Biosignal
T8 sequence (Q99705 whole entry): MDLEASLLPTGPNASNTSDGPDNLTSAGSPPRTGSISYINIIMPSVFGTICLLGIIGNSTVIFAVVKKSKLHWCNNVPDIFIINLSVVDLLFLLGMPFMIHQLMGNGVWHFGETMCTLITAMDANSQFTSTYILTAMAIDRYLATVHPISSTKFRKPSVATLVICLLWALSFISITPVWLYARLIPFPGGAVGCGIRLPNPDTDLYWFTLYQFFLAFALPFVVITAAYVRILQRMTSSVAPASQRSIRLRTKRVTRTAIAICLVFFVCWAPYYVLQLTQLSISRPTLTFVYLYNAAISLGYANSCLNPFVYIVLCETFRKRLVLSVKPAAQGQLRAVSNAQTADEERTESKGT
Procedure, shortened: as §1

[9] = target: T9, Mouse urotensin (mUR2) (Mus musculus, UniProt Q8VIH9); assay: Radioligand binding, mouse urotensin mUR2 membranes, FlashPlate, [125I]-Urotensin II; settings: compound at 10 μM; for A11 radioligand binding inhibition: mouse urotensin mUR2 membranes
T9 construct: purchased Perkin Elmer Biosignal
T9 sequence (Q8VIH9 1-385): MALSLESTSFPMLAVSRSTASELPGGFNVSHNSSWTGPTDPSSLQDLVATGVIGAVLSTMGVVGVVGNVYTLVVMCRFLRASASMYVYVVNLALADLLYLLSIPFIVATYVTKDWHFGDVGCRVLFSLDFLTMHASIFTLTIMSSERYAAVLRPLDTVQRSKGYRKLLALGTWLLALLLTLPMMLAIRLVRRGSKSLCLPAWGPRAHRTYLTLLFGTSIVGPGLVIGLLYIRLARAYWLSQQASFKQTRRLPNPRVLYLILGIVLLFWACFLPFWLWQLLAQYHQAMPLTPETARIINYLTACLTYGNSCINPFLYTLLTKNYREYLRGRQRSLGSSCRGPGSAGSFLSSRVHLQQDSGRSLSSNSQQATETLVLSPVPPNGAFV
Procedure, shortened: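 Cloned mouse urotensin (mUR2) receptor membranes from Perkin Elmer Biosignal were immobilized in FlashPlate microplates using a proprietary coating. Each well got 19.5 μl buffer, then 0.5 μl of DMSO, reference ligand, or compound. Adding 5 μl of [125I]-Urotensin II, diluted to 5× final concentration in binding buffer, started binding. Plates were sealed with TopSeal-A and incubated 1 hour at room temperature in the dark. Wells were counted for 30 seconds each on a TopCount after a 60-second delay, and percentage inhibition was calculated.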

[10] = target: T10, Human δ-opioid (DOP) (Homo sapiens, UniProt P41143); assay: Radioligand binding, human δ-opioid (DOP) membranes, FlashPlate, [3H]-Bremazocine; settings: compound at 10 μM; for A1 radioligand binding inhibition: human δ-opioid (DOP) membranes
T10 construct: purchased Perkin Elmer Biosignal
T10 sequence (P41143 whole entry): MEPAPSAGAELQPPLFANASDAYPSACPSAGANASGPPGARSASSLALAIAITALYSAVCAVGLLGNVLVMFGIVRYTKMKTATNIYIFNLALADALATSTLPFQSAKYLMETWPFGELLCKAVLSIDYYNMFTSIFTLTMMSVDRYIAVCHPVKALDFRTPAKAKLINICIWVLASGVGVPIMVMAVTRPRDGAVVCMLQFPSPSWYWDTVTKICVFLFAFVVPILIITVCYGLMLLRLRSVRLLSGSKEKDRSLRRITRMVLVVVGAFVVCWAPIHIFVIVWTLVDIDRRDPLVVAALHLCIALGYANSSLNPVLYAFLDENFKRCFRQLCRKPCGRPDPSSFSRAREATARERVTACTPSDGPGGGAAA
Procedure, shortened: as §1

[11] = target: T11, Human κ-Opioid (KOP) (Homo sapiens, UniProt P41145); assay: Radioligand binding, human κ-opioid (KOP) membranes, filtration, [3H]-Diprenorphine; settings: compound at 10 μM; for A2 radioligand binding inhibition: human κ-opioid (KOP) membranes
T11 construct: purchased Perkin Elmer Biosignal
T11 sequence (P41145 whole entry): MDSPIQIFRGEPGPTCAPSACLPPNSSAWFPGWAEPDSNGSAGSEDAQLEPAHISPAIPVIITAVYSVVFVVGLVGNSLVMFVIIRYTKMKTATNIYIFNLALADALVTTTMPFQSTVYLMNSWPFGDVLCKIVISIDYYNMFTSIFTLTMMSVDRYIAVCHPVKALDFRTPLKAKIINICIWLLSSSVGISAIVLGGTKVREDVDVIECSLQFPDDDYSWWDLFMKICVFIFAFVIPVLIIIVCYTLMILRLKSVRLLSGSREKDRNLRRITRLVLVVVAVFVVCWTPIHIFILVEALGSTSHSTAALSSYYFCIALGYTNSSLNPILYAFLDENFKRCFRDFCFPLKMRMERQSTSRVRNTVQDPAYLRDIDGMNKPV
Procedure, shortened: as §2

T1 sequence (P35372 whole entry): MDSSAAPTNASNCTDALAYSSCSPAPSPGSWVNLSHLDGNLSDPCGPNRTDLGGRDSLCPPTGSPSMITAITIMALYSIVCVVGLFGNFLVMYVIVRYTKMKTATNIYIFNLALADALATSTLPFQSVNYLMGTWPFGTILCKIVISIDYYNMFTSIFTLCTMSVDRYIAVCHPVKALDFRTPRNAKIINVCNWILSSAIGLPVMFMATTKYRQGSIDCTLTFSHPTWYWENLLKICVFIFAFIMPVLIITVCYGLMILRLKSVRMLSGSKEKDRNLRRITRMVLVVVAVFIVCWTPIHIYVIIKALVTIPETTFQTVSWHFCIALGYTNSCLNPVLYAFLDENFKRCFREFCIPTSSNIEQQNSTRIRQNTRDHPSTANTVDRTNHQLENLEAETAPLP

Compound | A7 radioligand binding inhibition [1] | A4 radioligand binding inhibition [2] | A8 radioligand binding inhibition [3] | A3 radioligand binding inhibition [4] | A10 radioligand binding inhibition [5] | A5 radioligand binding inhibition [6] | A9 radioligand binding inhibition [7] | A6 radioligand binding inhibition [8] | A11 radioligand binding inhibition [9] | A1 radioligand binding inhibition [10] | A2 radioligand binding inhibition [11] | A7: inhibition of radioligand binding, human μ-opioid (MOP) ([1]; [3H]-Naloxone) | A4: inhibition of radioligand binding, human melanocortin (MC4) ([2]; [125I]-NDP-αMSH) | A8: inhibition of radioligand binding, human neurokinin (NK1) ([3]; [125I]-Substance P) | A3: inhibition of radioligand binding, human melanocortin (MC3) ([4]; [125I]-NDP-αMSH) | A10: inhibition of radioligand binding, human opioid (ORL1) ([5]; [125I]-Nociceptin) | A5: inhibition of radioligand binding, human melanocortin (MC5) ([6]; [125I]-NDP-αMSH) | A9: inhibition of radioligand binding, human neuropeptide Y (NPY-Y1) ([7]; [125I]-PYY) | A6: inhibition of radioligand binding, human melanin-concentrating hormone (MCH1) [8] | A11: inhibition of radioligand binding, mouse urotensin (mUR2) ([9]; [125I]-Urotensin II) | further results
COC[C@H]1OC(OCc2ccccc2)[C@H](NC(=O)CCCNC(=N)N)[C@@H](OCc2ccc(-c3ccccc3)cc2)[C@@H]1O (stereo partly shown) [compound 25] | − (“−” indicates less than 50% inhibition at 10 μM) | + (“+” indicates greater than 50% inhibition at 10 μM) | + (“+” indicates greater than 50% inhibition at 10 μM) | − (“−” indicates less than 50% inhibition at 10 μM) | − (“−” indicates less than 50% inhibition at 10 μM) | + (“+” indicates greater than 50% inhibition at 10 μM) | − (“−” indicates less than 50% inhibition at 10 μM) | + (“+” indicates greater than 50% inhibition at 10 μM) | − (“−” indicates less than 50% inhibition at 10 μM) | − (“−” indicates less than 50% inhibition at 10 μM) | − (“−” indicates less than 50% inhibition at 10 μM) | – | – | – | – | – | – | – | – | – | –
N=C(N)NCCC(=O)N[C@H]1C(OCc2ccc(Cl)cc2)O[C@H](COCc2ccccc2)[C@@H](O)[C@@H]1OCc1ccc2ccccc2c1 (stereo partly shown) [compound 530] | – | – | – | – | – | – | – | – | – | – | – | + (“+” indicates greater than 50% inhibition at 10 μM) | + (“+” indicates greater than 50% inhibition at 10 μM) | + (“+” indicates greater than 50% inhibition at 10 μM) | + (“+” indicates greater than 50% inhibition at 10 μM) | + (“+” indicates greater than 50% inhibition at 10 μM) | + (“+” indicates greater than 50% inhibition at 10 μM) | − (“−” indicates less than 50% inhibition at 10 μM) | + (“+” indicates greater than 50% inhibition at 10 μM) | − (“−” indicates less than 50% inhibition at 10 μM) | A1: inhibition of radioligand binding, human δ-opioid (DOP) ([10]; [3H]-Bremazocine): − (“−” indicates less than 50% inhibition at 10 μM); A2: inhibition of radioligand binding, human κ-opioid (KOP) ([11]; [3H]-Diprenorphine): + (“+” indicates greater than 50% inhibition at 10 μM)
NCCC(=O)NC1C(OCc2ccccc2)OC(COCc2ccc3ccccc3c2)C(O)C1OCc1ccc2ccccc2c1 (stereo not shown) [compound 366] | – | – | – | – | – | – | – | – | – | – | – | − (“−” indicates less than 50% inhibition at 10 μM) | + (“+” indicates greater than 50% inhibition at 10 μM) | + (“+” indicates greater than 50% inhibition at 10 μM) | + (“+” indicates greater than 50% inhibition at 10 μM) | − (“−” indicates less than 50% inhibition at 10 μM) | + (“+” indicates greater than 50% inhibition at 10 μM) | − (“−” indicates less than 50% inhibition at 10 μM) | − (“−” indicates less than 50% inhibition at 10 μM) | − (“−” indicates less than 50% inhibition at 10 μM) | A1: inhibition of radioligand binding, human δ-opioid (DOP) ([10]; [3H]-Bremazocine): − (“−” indicates less than 50% inhibition at 10 μM); A2: inhibition of radioligand binding, human κ-opioid (KOP) ([11]; [3H]-Diprenorphine): − (“−” indicates less than 50% inhibition at 10 μM)
CSC1O[C@H](COCc2ccc(-c3ccccc3)cc2)[C@@H](O)[C@@H](OCc2ccc(Cl)cc2)[C@H]1NC(=O)CCCN (stereo partly shown) [compound 278] | – | – | – | – | – | – | – | – | – | – | – | – | – | – | – | – | – | – | – | – | A7: inhibition of radioligand binding ([1]; [3H]-Naloxone, FlashPlate): − (“−” indicates less than 50% inhibition at 10 μM); A4: inhibition of radioligand binding ([2]; [125I]-NDP-αMSH, FlashPlate): − (“−” indicates less than 50% inhibition at 10 μM); A8: inhibition of radioligand binding ([3]; [125I]-Substance P, filtration): + (“+” indicates greater than 50% inhibition at 10 μM); A3: inhibition of radioligand binding ([4]; [125I]-NDP-αMSH, FlashPlate): − (“−” indicates less than 50% inhibition at 10 μM); A10: inhibition of radioligand binding ([5]; [125I]-Nociceptin, FlashPlate): − (“−” indicates less than 50% inhibition at 10 μM); A5: inhibition of radioligand binding ([6]; [125I]-NDP-αMSH, FlashPlate): − (“−” indicates less than 50% inhibition at 10 μM); A9: inhibition of radioligand binding ([7]; [125I]-PYY, FlashPlate): − (“−” indicates less than 50% inhibition at 10 μM); A6: inhibition of radioligand binding ([8]; [125I]-S36057, FlashPlate): − (“−” indicates less than 50% inhibition at 10 μM); A11: inhibition of radioligand binding ([9]; [125I]-Urotensin II, FlashPlate): − (“−” indicates less than 50% inhibition at 10 μM); A1: inhibition of radioligand binding ([10]; [3H]-Bremazocine, FlashPlate): − (“−” indicates less than 50% inhibition at 10 μM); A2: inhibition of radioligand binding ([11]; [3H]-Diprenorphine, filtration): − (“−” indicates less than 50% inhibition at 10 μM)
CO[C@H]1[C@H](O)[C@@H](COCc2ccc3ccccc3c2)OC(OCc2ccc3ccccc3c2)[C@@H]1NC(=O)CCNC(=N)N (stereo partly shown) [compound 71] | + (“+” indicates greater than 50% inhibition at 10 μM) | + (“+” indicates greater than 50% inhibition at 10 μM) | + (“+” indicates greater than 50% inhibition at 10 μM) | + (“+” indicates greater than 50% inhibition at 10 μM) | + (“+” indicates greater than 50% inhibition at 10 μM) | + (“+” indicates greater than 50% inhibition at 10 μM) | − (“−” indicates less than 50% inhibition at 10 μM) | + (“+” indicates greater than 50% inhibition at 10 μM) | − (“−” indicates less than 50% inhibition at 10 μM) | − (“−” indicates less than 50% inhibition at 10 μM) | + (“+” indicates greater than 50% inhibition at 10 μM) | – | – | – | – | – | – | – | – | – | –
